Measurements as given in PMC7822874, “Chemoprotective antimalarials identified through quantitative high-throughput screening of Plasmodium blood and liver stage parasites” (Scientific Reports, 2021).
Like-named read-outs stand apart in the source and are kept apart here.

Tested on: Plasmodium falciparum Dd2 asexual blood stage parasites
Assay: microbe, parasite or virus in culture
Design: species or system Plasmodium falciparum Dd2 in human erythrocytes; single determination (one 11-point concentration-response curve)
Conditions: Plasmodium falciparum, DD2, Erythrocyte, 72 h

Q: For CCOC(=O)c1c(CN(CC)CC)n(C)c2cc(Br)c(O)cc12 [MLS000778381-01], which AC50 (read-out: AC50) is on record?
A: 9.44 µM

Q: For COc1ccc(-n2cc(CNCCCn3ccnc3)c(-c3ccccc3Cl)n2)cc1 [MLS000734282-01], which AC50 (read-out: AC50) is on record?
A: 3.35 µM

Q: How did the AC50 (read-out: AC50) turn out when Cc1cc(C)c(CN2C(=O)c3ccccc3[S+](=O)([O-])c3ccc(C(=O)OCC4CCCO4)cc32)c(C)c1 (stereo not shown) [NCGC00127808-01] was run?
A: 6.68 µM

Q: With CC1=C[C@@H](CN2CCN(c3ncccn3)CC2)[C@H](C(C)C)C[C@H]1Cc1nnc(COc2ccc(F)cc2)o1 [NCGC00395820-01] as the compound, how does the AC50 (read-out: AC50) read?
A: 0.75 µM

Q: CCn1ncc(CN2CCCC23CCN(c2cc(C)nc4ccccc24)CC3)c1C [NCGC00442843-01] was tested. Which AC50 (read-out: AC50) did it give?
A: 5.31 µM

Q: For CCn1c(N2CCC(C)CC2)nc2c1c(=O)n(C)c(=O)n2C [MLS000115844-01], which AC50 (read-out: AC50) is on record?
A: 5.96 µM

Q: Which AC50 (read-out: AC50) does the source give for COc1ccc(CCNC(=O)Cn2c(-c3cccs3)cc3cc(F)ccc32)cc1OC [NCGC00111974-01] here?
A: 4.73 µM

Q: With COc1ccc2c(c1)c(CN1CCCCCCN(C)C(=O)[C@@H]3CCC[C@@H]31)cn2C [NCGC00465190-01] as the compound, how does the AC50 (read-out: AC50) read?
A: 15 µM

Q: With COc1cc(C#Cc2c(-c3cncn3C)n(C)c3ccc(-c4ccc(OC)c(OC)c4)cc23)cc(OC)c1 [MLS002391599-01] as the compound, how does the AC50 (read-out: AC50) read?
A: 4.73 µM

Q: How did the AC50 (read-out: AC50) turn out when CCN1CCN(Cc2ccc(NC(=O)c3cc(NC(=O)c4cc(-c5ccc(OC)cc5)n[nH]4)cc(OC)c3)cc2C(F)(F)F)CC1 [MLS000911571-01] was run?
A: 0.168 µM

Q: How did the AC50 (read-out: AC50) turn out when COc1ccc(-n2nc(C(=O)NCC(=O)N3CCN(c4ccccc4OC)CC3)c3ccccc3c2=O)cc1OC [MLS000936245-01] was run?
A: 6.68 µM

Q: O=C(c1ccccc1OCC1CCCN(Cc2ccncc2F)C1)N1CCCC1 (stereo not shown) [NCGC00427122-01] was tested. Which AC50 (read-out: AC50) did it give?
A: 10.6 µM

Q: For COc1cc(O)c(C(CCN2CCCC(C)C2)c2ccc3c(c2)OCO3)c(OC)c1 (stereo not shown) [MLS000879506-01], which AC50 (read-out: AC50) is on record?
A: 0.531 µM

Q: For Cc1cccc(C)c1-n1ncc(C(=O)NCCCN2CCC(C)CC2)c1C1CCN(C(=O)OC(C)(C)C)CC1 [NCGC00127064-01], which AC50 (read-out: AC50) is on record?
A: 15 µM

Q: With Cc1cccn2c(=O)c3cc(C(=O)NC(C)c4ccccc4)c(=N)n(CCOCCO)c3nc12 (stereo not shown) [NCGC00100488-01] as the compound, how does the AC50 (read-out: AC50) read?
A: 10.6 µM

Q: How did the AC50 (read-out: AC50) turn out when Cc1ccc(CN2CCCN(Cc3ccncc3)C(c3ccccc3)CC(=O)NCC2)o1 (stereo not shown) [NCGC00467180-01] was run?
A: 7.5 µM

Q: How did the AC50 (read-out: AC50) turn out when O=C(c1nc(-c2cccc(C(F)(F)F)c2)c2cnccn12)N1CCCC1 [NCGC00476432-01] was run?
A: 10.6 µM

Q: Which AC50 (read-out: AC50) does the source give for Cc1cccc(N2CCN(c3cccc(C)c3)C2c2cccnc2)c1 [MLS000105583-01] here?
A: 5.96 µM

Q: With COc1ccc(N(CC(=O)NCc2ccccc2)C(=O)CCC(=O)Nc2cc(C)ccn2)c(OC)c1 [MLS000121471-01] as the compound, how does the AC50 (read-out: AC50) read?
A: 10.6 µM

Q: CCN1CCN(Cc2ccc(NC(=O)c3ccc(C)c(NC(=O)C4=NN(c5ccccc5)C(=O)C4)c3)cc2C(F)(F)F)CC1 [MLS003105987-01] was tested. Which AC50 did it give?
A: 8.41 µM

Q: For O=C1NC2(CCN(C(=O)c3ccc(C(F)(F)F)cc3)CC2)COc2ccccc21 [NCGC00477468-01], which AC50 (read-out: AC50) is on record?
A: 8.41 µM

Q: For CC1(c2ccccc2)O[C@@H]2C[C@H]3[C@@H]4CCC5=CC(=O)C=C[C@]5(C)[C@@]4(F)[C@@H](O)C[C@]3(C)[C@]2(C(=O)CO)O1 (stereo partly shown) [MLS000738166-01], which AC50 (read-out: AC50) is on record?
A: 4.73 µM

Q: How did the AC50 (read-out: AC50) turn out when CCCCn1c(=N)c(C(=O)NC2CCCCC2)cc2c(=O)n3cccc(C)c3nc21 [NCGC00101037-01] was run?
A: 1.5 µM

Q: For O=C(Nc1ccccc1)c1cc2c(-c3ccccc3)nn(-c3ccccc3)c2s1 [NCGC00102084-01], which AC50 (read-out: AC50) is on record?
A: 3.35 µM

Q: CC(C)c1ccc(C2c3[nH]c4ccccc4c3C[C@H]3C(=O)N(c4ccccc4C(=O)N4CCC(C(=O)O)CC4)C(=O)N23)cc1 (stereo partly shown) [MLS001140664-01] was tested. Which AC50 (read-out: AC50) did it give?
A: 6.68 µM

Q: For COc1ccccc1CN1CCn2c(nn(-c3ccc([N+](=O)[O-])cc3)c2=O)C1 [NCGC00479607-01], which AC50 (read-out: AC50) is on record?
A: 5.96 µM

Q: For COc1cccc(CN2C(=O)OC3(CCN(Cc4ccc5c(c4)CCO5)CC3)C2(C)c2cccnc2)c1 (stereo not shown) [NCGC00415555-01], which AC50 (read-out: AC50) is on record?
A: 4.73 µM

Q: For O=C(NC[C@H]1C[C@@H]2CC[N@]1C[C@@H]2CN1CCC(Cc2ccccc2)CC1)c1ccccc1 [NCGC00421103-01], which AC50 (read-out: AC50) is on record?
A: 7.69 µM

Q: For CC(=O)Nc1ccc2nnc(-c3ccc(C(=O)N4CCCCCC4)cc3)n2c1 [NCGC00429830-01], which AC50 (read-out: AC50) is on record?
A: 8.41 µM

Q: Which AC50 (read-out: AC50) does the source give for O=C(Nc1ccc2c(N3CCCCC3)ncnc2c1)c1ccc(F)c(F)c1 [NCGC00425519-01] here?
A: 4.73 µM

Q: With CCC(C)(C)n1nnnc1C(c1cccnc1)N1CCN(c2cccc(C(F)(F)F)c2)CC1 (stereo not shown) [MLS000122548-01] as the compound, how does the AC50 (read-out: AC50) read?
A: 6.68 µM

Q: How did the AC50 (read-out: AC50) turn out when COc1cc2c(cc1OCC1CC1)NC(=O)C21CCN(c2nccs2)CC1 [NCGC00416908-01] was run?
A: 21.7 µM

Q: COc1ccc(C2=[N+](C)CCn3cccc32)c(OC)c1 [MLS000705896-01] was tested. Which AC50 (read-out: AC50) did it give?
A: 10.6 µM

Q: Which AC50 (read-out: AC50) does the source give for O=C(NC1=C(Nc2ccc(Cl)cc2)C(=O)c2ccccc2C1=O)c1ccccc1 [MLS000375030-01] here?
A: 0.473 µM

Q: CC(=O)Nc1cccc(OCc2nnc(C(=O)N3CCC[C@@H]3C(c3ccccc3)c3ccccc3)n2-c2ccccc2)c1 [NCGC00415783-01] was tested. Which AC50 (read-out: AC50) did it give?
A: 10.6 µM

Q: Which AC50 (read-out: AC50) does the source give for CCCCCCCNC(=O)C1(CC2CC(c3cccc(Br)c3)=NO2)CCN(C(=O)c2cc(OCC)c(OCC)c(OCC)c2)CC1 (stereo not shown) [MLS001144006-01] here?
A: 10.6 µM

Q: With C=CC/N=C(\S)N1CCN(c2ccc([N+](=O)[O-])cc2)CC1 [MLS000581348-01] as the compound, how does the AC50 (read-out: AC50) read?
A: 4.22 µM
